In the experiment the target is mouse TRPM3α2 (mTRPM3) ion channel (Mus musculus (Mouse), UniProt J9SQF3). The experiment in a line: TRPM3 ion channel driven Ca2+ uptake, Fluo-4 AM assay, mTRPM3alpha2 overexpressing flip-in HEK293 cells stimulated with pregnenolone sulfate. It counts as cell-based. An outline of the steps:
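Flip-in HEK293 cells loaded with Fluo-4 AM were added to plates holding compound plus 50 μM pregnenolone sulfate in Ca2+-containing Krebs buffer. Fluorescence (ex 485/em 535 nm) read directly after cell addition; % inhibition relative to PS-stimulated vehicle and positive-control inhibitor.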

The mark [1] stands for this setting: PS (50 μM) stimulated, cpds. 500-599.
The mark [2] stands for this setting: PS (50 μM) stimulated, cpd 001-199.
The mark [3] stands for this setting: PS (50 μM) stimulated, cpds. 400-499.
[4] abbreviates: PS (50 μM) stimulated, cpds. 667-751.
Where [5] appears, read: PS (50 μM) stimulated, cpds. 608-666.

The values below come from patent US12209081B2 (Katholieke Universiteit Leuven, priority 2020, dated 2025).

mouse TRPM3α2 (mTRPM3) ion channel, sequence (J9SQF3 other isoform, or with tags, fused parts or gaps): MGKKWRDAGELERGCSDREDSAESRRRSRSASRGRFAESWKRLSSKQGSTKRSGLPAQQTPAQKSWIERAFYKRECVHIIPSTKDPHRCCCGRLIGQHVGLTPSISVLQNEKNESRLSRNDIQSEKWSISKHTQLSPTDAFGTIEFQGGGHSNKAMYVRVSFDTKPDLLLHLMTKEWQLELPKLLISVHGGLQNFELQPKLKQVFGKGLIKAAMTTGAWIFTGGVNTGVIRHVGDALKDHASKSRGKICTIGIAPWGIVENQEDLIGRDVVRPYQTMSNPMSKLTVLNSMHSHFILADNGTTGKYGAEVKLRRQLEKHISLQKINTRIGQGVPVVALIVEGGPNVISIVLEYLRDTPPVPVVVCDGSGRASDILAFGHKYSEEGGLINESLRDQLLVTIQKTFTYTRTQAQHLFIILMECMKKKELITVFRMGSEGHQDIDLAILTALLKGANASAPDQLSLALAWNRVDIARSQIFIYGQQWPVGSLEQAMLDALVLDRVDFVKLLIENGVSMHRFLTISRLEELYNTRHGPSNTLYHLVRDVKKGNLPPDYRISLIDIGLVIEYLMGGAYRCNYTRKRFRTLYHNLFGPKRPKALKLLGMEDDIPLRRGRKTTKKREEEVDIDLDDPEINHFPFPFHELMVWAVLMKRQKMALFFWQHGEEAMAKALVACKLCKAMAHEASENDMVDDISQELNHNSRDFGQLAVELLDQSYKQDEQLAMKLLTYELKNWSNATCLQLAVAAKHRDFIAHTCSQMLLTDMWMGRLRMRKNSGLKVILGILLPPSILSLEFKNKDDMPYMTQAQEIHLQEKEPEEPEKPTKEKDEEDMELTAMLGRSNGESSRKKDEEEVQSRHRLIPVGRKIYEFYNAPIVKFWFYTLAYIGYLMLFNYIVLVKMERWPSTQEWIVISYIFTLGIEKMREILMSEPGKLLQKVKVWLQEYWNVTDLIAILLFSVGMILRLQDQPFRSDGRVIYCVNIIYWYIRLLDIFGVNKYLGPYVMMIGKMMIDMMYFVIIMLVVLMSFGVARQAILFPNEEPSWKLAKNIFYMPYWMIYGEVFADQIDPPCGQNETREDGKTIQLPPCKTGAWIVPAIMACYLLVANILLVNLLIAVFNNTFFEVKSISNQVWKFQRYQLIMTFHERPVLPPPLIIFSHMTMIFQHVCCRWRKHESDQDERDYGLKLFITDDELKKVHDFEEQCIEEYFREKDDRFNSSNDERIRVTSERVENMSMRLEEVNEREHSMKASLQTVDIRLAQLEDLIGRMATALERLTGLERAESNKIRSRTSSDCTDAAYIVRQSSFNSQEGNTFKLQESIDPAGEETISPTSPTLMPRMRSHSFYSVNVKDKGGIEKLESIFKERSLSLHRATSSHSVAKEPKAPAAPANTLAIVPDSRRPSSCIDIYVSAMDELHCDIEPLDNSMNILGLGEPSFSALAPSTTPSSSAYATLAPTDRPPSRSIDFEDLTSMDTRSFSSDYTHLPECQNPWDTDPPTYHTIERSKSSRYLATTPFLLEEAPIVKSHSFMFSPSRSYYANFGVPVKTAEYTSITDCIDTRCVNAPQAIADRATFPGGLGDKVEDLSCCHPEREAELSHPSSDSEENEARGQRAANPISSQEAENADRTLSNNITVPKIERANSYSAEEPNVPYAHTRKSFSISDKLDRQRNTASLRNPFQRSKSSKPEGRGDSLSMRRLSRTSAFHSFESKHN

As a reminder, the IC50 is the concentration needed to halve the response being measured. With `Cc1oc2ccc(OCc3cccnc3C(F)F)cc2c1C(=O)NC1(C(N)=O)COC1` [compound 584, N-(3-carbamoyloxetan-3-yl)-5-((2-(difluoromethyl)pyridin-3-yl)methoxy)-2-methylbenzofuran-3-carboxamide], the IC50 under setting [1] is < 1 µM. Turning to `Cc1oc2ccc(OCc3ccccn3)cc2c1C(=O)NC1(C(N)=O)COC1` [compound 581, N-(3-carbamoyloxetan-3-yl)-2-methyl-5-(pyridin-2-ylmethoxy)benzofuran-3-carboxamide], under setting [1], the IC50 is < 1 µM.

As to `Cc1ncsc1COc1ccc2oc(C)c(C(=O)NC3(CCO)CCC3)c2c1` [compound 114, N-(1-(2-hydroxyethyl)cyclobutyl)-2-methyl-5-((4-methylthiazol-5-yl)methoxy)benzofuran-3-carboxamide], under setting [2], the IC50 was < 1 µM.

As to `Cc1ncsc1COc1ccc2oc(C)c(C(=O)Nc3ccn(C)n3)c2c1` [compound 161, 2-methyl-N-(1-methyl-1H-pyrazol-3-yl)-5-((4-methylthiazol-5-yl)methoxy)benzofuran-3-carboxamide], the half-maximal inhibitory concentration (IC50) under setting [2] was < 1 µM. For `Cc1oc2ccc(OCc3cccnc3N)cc2c1C(=O)NC1(CO)CCOCC1` [compound 346, 5-((2-aminopyridin-3-yl)methoxy)-N-(4-(hydroxymethyl)tetrahydro-2H-pyran-4-yl)-2-methylbenzofuran-3-carboxamide], the concentration for half-maximal inhibition (IC50) (PS 50 μM, cpds 300-399) is < 1 µM. Consider `Cc1oc2ccc(OCc3cccnn3)cc2c1C(=O)NC1CCNCC1(F)F` (single isomer, unassigned) [cpd 557-En 1], for which the IC50 under setting [1] was < 1 µM. As to `Cc1oc2ccc(OCc3ccccn3)cc2c1C(=O)N[C@@H](C)CO` [compound 492, (S)-N-(1-hydroxypropan-2-yl)-2-methyl-5-(pyridin-2-ylmethoxy)benzofuran-3-carboxamide], the 50% inhibitory concentration (IC50) under setting [3] is < 1 µM. As for `COc1cccc(COc2ccc3oc(C)c(C(=O)NC4CCNCC4(F)F)c3c2)n1` (single isomer, unassigned) [cpd 570-En 2], the IC50 under setting [1] was in the range of 1 to 20 µM. On the same count and under the same terms, to `Cc1oc2ccc(OCc3ncn(C)n3)cc2c1C(=O)NC1CCNCC1(F)F` (single isomer, unassigned) [cpd 542-En 2] belongs > 20 µM.

As to `Cc1cccc(COc2ccc3oc(C)c(C(=O)N[C@H]4CCNC4)c3c2)n1` [compound 029, (S)-2-methyl-5-((6-methylpyridin-2-yl)methoxy)-N-(pyrrolidin-3-yl)benzofuran-3-carboxamide], the half-inhibitory concentration (IC50) under setting [2] is < 1 µM. Regarding `Cc1ncsc1COc1ccc2oc(C3CC3)c(C(=O)N[C@@H](CO)C(N)=O)c2c1` [compound 748, (S)-N-(1-Amino-3-hydroxy-1-oxopropan-2-yl)-2-cyclopropyl-5-((4-methylthiazol-5-yl)methoxy)benzofuran-3-carboxamide], the 50% inhibitory concentration (IC50) under setting [4] was < 1 µM.

For the compound `Cc1oc2ccc(OCC3CCNC3)cc2c1C(=O)O` (stereo not shown) [compound 003, 2-methyl-5-(pyrrolidin-3-ylmethoxy)benzofuran-3-carboxylic acid], the IC50 under setting [2] was > 20 µM. As to `O=C(NC1CCNCC1(F)F)c1c(C2CC2)oc2ccc(OCc3cccnc3C(F)(F)F)cc12` (single isomer, unassigned) [cpd 313-En 2], the concentration for half-maximal inhibition (IC50) (PS 50 μM, cpds 300-399) was 1 to 20 µM. As for `Cc1ncc(COc2ccc3oc(C)c(C(=O)NC4(CO)CCNC4)c3c2)s1` (single isomer, unassigned) [530-En 2, N-(3-(hydroxymethyl)pyrrolidin-3-yl)-2-methyl-5-((2-methylthiazol-5-yl)methoxy)benzofuran-3-carboxamide], the concentration for half-maximal inhibition (IC50) under setting [1] is < 1 µM.

Take `Cc1oc2ccc(OCc3cccnc3C(F)(F)F)cc2c1C(=O)NC1CC2(COC2)C1` [compound 167, 2-methyl-N-(2-oxaspiro[3.3]heptan-6-yl)-5-((2-(trifluoromethyl)pyridin-3-yl)methoxy)benzofuran-3-carboxamide]: the IC50 under setting [2] was < 1 µM. Turning to `Cc1cnc(COc2ccc3oc(C)c(C(=O)N[C@@H](CO)C(N)=O)c3c2)s1` [compound 684, (S)-N-(1-Amino-3-hydroxy-1-oxopropan-2-yl)-2-methyl-5-((5-methylthiazol-2-yl)methoxy)benzofuran-3-carboxamide], the 50% inhibitory concentration (IC50) under setting [4] was < 1 µM. Turning to `Cc1ccc(COc2ccc3oc(C)c(C(=O)N[C@@H](CO)C(N)=O)c3c2)cn1` [compound 291, (S)-N-(1-amino-3-hydroxy-1-oxopropan-2-yl)-2-methyl-5-((6-methylpyridin-3-yl)methoxy)benzofuran-3-carboxamide], the concentration for half-maximal inhibition (IC50) (PS 50 μM, cpds 200-299) was < 1 µM. Take `Cc1ncsc1COc1ccc2oc(C)c(C(=O)N(C)C3(C(N)=O)COC3)c2c1` [compound 589, N-(3-carbamoyloxetan-3-yl)-N,2-dimethyl-5-((4-methylthiazol-5-yl)methoxy)benzofuran-3-carboxamide]: under setting [1], the IC50 lay in the range of 1 to 20 µM. With `Cc1oc2ccc(OCc3ccccn3)cc2c1C(=O)NC1(C(N)=O)CC1` [compound 478, N-(1-carbamoylcyclopropyl)-2-methyl-5-(pyridin-2-ylmethoxy)benzofuran-3-carboxamide], under setting [3], the IC50 is < 1 µM. For the compound `Cc1oc2ccc(OCc3ccccn3)cc2c1C(=O)NC(C)(CO)CO` [compound 428, N-(1,3-dihydroxy-2-methylpropan-2-yl)-2-methyl-5-(pyridin-2-ylmethoxy)benzofuran-3-carboxamide], under setting [3], the concentration for half-maximal inhibition (IC50) was < 1 µM. On to `Cc1oc2ccc(OCc3c[nH]nc3C(F)(F)F)cc2c1C(=O)N[C@@H](CO)C(N)=O` [compound 286, (S)-N-(1-amino-3-hydroxy-1-oxopropan-2-yl)-2-methyl-5-((3-(trifluoromethyl)-1H-pyrazol-4-yl)methoxy)benzofuran-3-carboxamide], for which the IC50 (PS 50 μM, cpds 200-299) is < 1 µM.

On to `Cc1ncsc1COc1ccc2oc(C)c(C(=O)NCCS(C)(=O)=O)c2c1` [compound 323, 2-methyl-N-(2-(methylsulfonyl)ethyl)-5-((4-methylthiazol-5-yl)methoxy)benzofuran-3-carboxamide], for which, under “PS 50 μM, cpds 300-399”, the concentration for half-maximal inhibition (IC50) is < 1 µM. On to `Cc1ccc(COc2ccc3oc(C)c(C(=O)N[C@H](C(N)=O)[C@@H](C)O)c3c2)cn1` [compound 380, N-((2S,3R)-1-amino-3-hydroxy-1-oxobutan-2-yl)-2-methyl-5-((6-methylpyridin-3-yl)methoxy)benzofuran-3-carboxamide], for which the concentration for half-maximal inhibition (IC50) (PS 50 μM, cpds 300-399) was < 1 µM.

Turning to `Cc1ncsc1COc1ccc2oc(C)c(C(=O)NCC(C)(C)CO)c2c1` [compound 602, N-(3-hydroxy-2,2-dimethylpropyl)-2-methyl-5-((4-methylthiazol-5-yl)methoxy)benzofuran-3-carboxamide], the IC50 under setting [5] is < 1 µM. Regarding `Cc1oc2ccc(OCc3cnnn3C)cc2c1C(=O)NC1CCNCC1(F)F` (single isomer, unassigned) [cpd 541-En 2], the IC50 under setting [1] was > 20 µM.

`Cc1ncsc1COc1cc2c(C(=O)NC3(CO)COC3)c(C)oc2cc1F` [compound 362, 6-fluoro-N-(3-(hydroxymethyl)oxetan-3-yl)-2-methyl-5-((4-methylthiazol-5-yl)methoxy)benzofuran-3-carboxamide]: the IC50 (PS 50 μM, cpds 300-399) is < 1 µM. Take `Cc1ncsc1COc1cc2c(C(=O)NC3CCNCC3(F)F)c(C)oc2cc1F` (single isomer, unassigned) [cpd 572-En 1]: under setting [1], the IC50 was < 1 µM. On the same count and under the same terms, to `Cc1oc2ccc(OCc3cccnc3O)cc2c1C(=O)NC1CCNCC1(F)F` (single isomer, unassigned) [cpd 564-En 1] belongs < 1 µM. Consider `Cc1ncc(COc2ccc3oc(C)c(C(=O)N[C@H](C(N)=O)[C@@H](C)O)c3c2)s1` [compound 377, N-((2S,3R)-1-amino-3-hydroxy-1-oxobutan-2-yl)-2-methyl-5-((2-methylthiazol-5-yl)methoxy)benzofuran-3-carboxamide], for which the IC50 (PS 50 μM, cpds 300-399) was < 1 µM. `Cc1oc2ccc(OCc3cncs3)cc2c1C(=O)N[C@@H](CO)C(N)=O` [compound 697, (S)-N-(1-Amino-3-hydroxy-1-oxopropan-2-yl)-2-methyl-5-(thiazol-5-ylmethoxy)benzofuran-3-carboxamide]: the half-maximal inhibitory concentration (IC50) under setting [4] is < 1 µM. Regarding `Cc1ncsc1COc1ccc2oc(C)c(C(=O)N[C@@H](C)C(N)=O)c2c1` [compound 279, (S)-N-(1-amino-1-oxopropan-2-yl)-2-methyl-5-((4-methylthiazol-5-yl)methoxy)benzofuran-3-carboxamide], the IC50 (PS 50 μM, cpds 200-299) is < 1 µM. On to `Cc1oc2ccc(OCc3ccc(O)nc3)cc2c1C(=O)NC1(CO)CCOCC1` [compound 631, N-(4-(hydroxymethyl)tetrahydro-2H-pyran-4-yl)-5-((6-hydroxypyridin-3-yl)methoxy)-2-methylbenzofuran-3-carboxamide], for which the half-maximal inhibitory concentration (IC50) under setting [5] was > 20 µM. As for `Cc1oc2ccc(OCc3cccnc3C(F)F)cc2c1C(=O)NC1CCNCC1(F)F` (single isomer, unassigned) [cpd 342-En 1], the IC50 (PS 50 μM, cpds 300-399) was < 1 µM. Regarding `Cc1oc2ccc(OCc3ncccn3)cc2c1C(=O)NC1CCNCC1(F)F` (single isomer, unassigned) [cpd 559-En 2], the 50% inhibitory concentration (IC50) under setting [1] is > 20 µM.

Take `Cc1oc2ccc(OCc3ccnn3CC(F)F)cc2c1C(=O)NC1(CO)CCOCC1` [compound 334, 5-((1-(2,2-difluoroethyl)-1H-pyrazol-5-yl)methoxy)-N-(4-(hydroxymethyl)tetrahydro-2H-pyran-4-yl)-2-methylbenzofuran-3-carboxamide]: the half-inhibitory concentration (IC50) (PS 50 μM, cpds 300-399) was < 1 µM.

For `Cc1oc2ccc(OCc3cnc(C(F)(F)F)s3)cc2c1C(=O)N[C@@H](CO)C(N)=O` [compound 281, (S)-N-(1-amino-3-hydroxy-1-oxopropan-2-yl)-2-methyl-5-((2-(trifluoromethyl)thiazol-5-yl)methoxy)benzofuran-3-carboxamide], the IC50 (PS 50 μM, cpds 200-299) was < 1 µM. As to `Cc1oc2ccc(OCc3cccnc3C(F)(F)F)cc2c1C(=O)NC(C)(C)CCO` [compound 651, N-(4-hydroxy-2-methylbutan-2-yl)-2-methyl-5-((2-(trifluoromethyl)pyridin-3-yl)methoxy)benzofuran-3-carboxamide], the IC50 under setting [5] is < 1 µM.
